Patent publication US9999617B2, “Compositions for treating bacterial infections” (TRUSTEES OF DARTMOUTH COLLEGE, priority 2009, dated 2018)
Values after ≈ are worked out from the molar mass of the structure shown.

What follows are compounds tested on S. aureus (assay: Minimum Inhibitory Concentration (MIC), inhibition of growth of S. aureus in vitro). Conditions: Staphylococcus aureus.
Type: cell-based
Protocol: Once the compounds of the present invention were identified through the MazEF screening assay described above, the activity of the compounds to inhibit growth of S. aureus in vitro was tested using the standard method of determining Minimum Inhibitory Concentrations (MICs). Such methods are well known to those of skill in the art since determining MIC doses is a standard assay in development of antibiotic drugs. For example, MIC values can be determined according to the Clinical and Laboratory Standards Institute guidelines. In Table 1, the MIC values are presented for each of the ten compounds identified through the MazEF screening assay as having potential for antibiotic activity in S. aureus.

Question: For `Cc1ccc(Nc2nc3nonc3nc2N)c(C)c1` [Compound 4], which MIC is on record?
Answer: 12.5 µg/mL (≈ 48.8 µM)

Question: Which MIC does the source give for `O=C1c2ccccc2-c2onc3ccc(Cl)c1c23` [Compound 5] here?
Answer: 6.25 µg/mL (≈ 24.4 µM)

Same assay, conditions: Staphylococcus aureus; S. aureus growth in vitro; read-out: MIC

Question: With `COc1ccc(/C=C2\SC(=O)NC2=S)cc1` [Compound 6] as the compound, how does the MIC read?
Answer: 0.78 µg/mL (≈ 3.1 µM)

Question: How did the MIC turn out when `COc1cc(/C=C2/S/C(=N\S(=O)(=O)c3ccccc3)NC2=O)ccc1O` [Compound 7] was run?
Answer: 100 µg/mL (≈ 256 µM)

Question: Which MIC does the source give for `CCN1CCc2c(sc(NC(=O)Nc3ccc(Cl)cc3)c2C(N)=O)C1` [Compound 9] here?
Answer: 100 µg/mL (≈ 264 µM)

Question: How did the MIC turn out when `CN1C(=O)/C(=C/c2cc(Br)cc([N+](=O)[O-])c2O)SC1=S` [Compound 2] was run?
Answer: 12.5 µg/mL (≈ 33.3 µM)
